Ends that are not written are not given here.
System: HIV-1 Protease
Assay type: biochemical
Conditions: bei 50 µM, nur 1 Bestimmung; 5% DMSO

**Q.** How did the “Inhibition der HIV-1 Protease” value turn out when “PQITLSDRLGGGGDRVSFNF-NH2 [HPQITLSDRLGGGGDRVSFNF-NH₂]” was run?
**A.** 36%⁺

Source: patent EP0680973A1, “Peptides, process to prepare them and their use” (priority 1994, dated 1995)
